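Cultured in 96-well plates, cells were exposed to test compound for 48 hours across five concentrations. TGI is the concentration that stops growth completely.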
Tests used:
Test in all cases: DTP human tumour cell line panel, 48 h
[1] = system: UACC-257 melanoma
[2] = system: U251 CNS
[3] = system: SF-295 CNS
[4] = system: HT29 colon
[5] = system: SNB-19 CNS
[6] = system: OVCAR-8 ovarian
[7] = system: SF-268 CNS
[8] = system: K-562 leukemia
[9] = system: HOP-92 NSCLC
[10] = system: DMS 114 small cell lung
[11] = system: SN12C renal
[12] = system: A549 NSCLC
[13] = system: SW-620 colon
[14] = system: DLD-1 colon
[15] = system: UACC-62 melanoma
[16] = system: 786-0 renal
[17] = system: HCT-116 colon
[18] = system: HCC-2998 colon
[19] = system: ACHN renal
[20] = system: EKVX NSCLC
[21] = system: NCI-H460 lung
[22] = system: SNB-75 CNS
[23] = system: RXF-631 renal
[24] = system: CCRF-CEM leukemia
[25] = system: SK-MEL-5 melanoma
[26] = system: CAKI-1 renal
[27] = system: RXF 393 renal
[28] = system: A498 renal
[29] = system: OVCAR-5 ovarian
[30] = system: RPMI-8226 leukemia
[31] = system: COLO 205 colon
[32] = system: SK-MEL-28 melanoma
[33] = system: MALME-3M melanoma
[34] = system: XF 498 CNS
[35] = system: TK-10 renal
[36] = system: NCI-H226 lung
[37] = system: DMS 273 small cell lung
[38] = system: KM12 colon
[39] = system: M14 melanoma
[40] = system: HL-60(TB) leukemia
[41] = system: LOX IMVI melanoma
[42] = system: SF-539 CNS
[43] = system: HOP-18 NSCLC
[44] = system: OVCAR-3 ovarian
[45] = system: SNB-78 CNS
[46] = system: KM20L2 colon
[47] = system: HOP-62 NSCLC
[48] = system: LXFL 529 NSCLC
[49] = system: IGROV1 ovarian
[50] = system: NCI-H23 lung
[51] = system: OVCAR-4 ovarian
[52] = system: M19-MEL melanoma
[53] = system: SR leukemia
[54] = system: MOLT-4 leukemia
[55] = system: NCI-H522 lung
[56] = system: UO-31 renal
[57] = system: SK-OV-3 ovarian
[58] = system: HCT-15 colon
[59] = system: SK-MEL-2 melanoma

For `CCOc1ccc(OCC)c([P+](c2ccccc2)(c2ccccc2)c2ccccc2)c1`, the TGI [1] was 3.8 µM, the TGI [2] was 10.8 µM and the TGI [3] was 6.38 µM. It also gave a TGI [4] of 12.9 µM, a TGI [5] of 12.7 µM and a TGI [6] of 12.5 µM. It also gave a TGI [7] of 24.4 µM, a TGI [8] of 17 µM and a TGI [9] of 0.95 µM. It also gave a TGI [10] of 3.18 µM, a TGI [11] of 5.61 µM and a TGI [12] of 11.6 µM. It also gave a TGI [13] of 13.1 µM, a TGI [14] of 16 µM and a TGI [15] of 14.8 µM. It also gave a TGI [16] of 15.6 µM, a TGI [17] of 11.8 µM and a TGI [18] of 11 µM. For the same molecule, the TGI [19] was 10.5 µM, the TGI [20] was 16.5 µM and the TGI [21] was 11.6 µM. It also gave a TGI [22] of 10.6 µM, a TGI [23] of 51.4 µM and a TGI [24] of 14.7 µM. For the same molecule, the TGI [25] was 1.14 µM, the TGI [26] was 6.1 µM and the TGI [27] was 15.7 µM. The TGI [28] was 4.42 µM, the TGI [29] was 6.91 µM and the TGI [30] was 2.36 µM. It also gave a TGI [31] of 1.31 µM, a TGI [32] of 16.8 µM and a TGI [33] of 23.3 µM. It also gave a TGI [34] of 0.542 µM, a TGI [35] of 12 µM and a TGI [36] of 3.24 µM. It also gave a TGI [37] of 1.21 µM, a TGI [38] of 10.1 µM and a TGI [39] of 12.6 µM. For the same molecule, the TGI [40] was 0.529 µM, the TGI [41] was 3.1 µM and the TGI [42] was 8.77 µM. It also gave a TGI [43] of 6.22 µM, a TGI [44] of 2.74 µM and a TGI [45] greater than 100 µM. The TGI [46] was 4.13 µM, the TGI [47] was 3.92 µM and the TGI [48] was 10.4 µM. The TGI [49] was 13.3 µM, the TGI [50] was 1.17 µM and the TGI [51] was 29 µM. The TGI [52] was 16.3 µM.

For `C#CCNC(=O)NCCCCC(NC(C)=O)C(=O)NCc1ccccc1` (stereo unspecified), the TGI [1] was greater than 100 µM, the TGI [2] was greater than 100 µM and the TGI [3] was greater than 100 µM. For the same molecule, the TGI [4] was greater than 100 µM, the TGI [5] was greater than 100 µM and the TGI [6] was greater than 100 µM. It also gave a TGI [7] greater than 100 µM, a TGI [53] greater than 100 µM and a TGI [8] greater than 100 µM. For the same molecule, the TGI [9] was greater than 100 µM, the TGI [10] was greater than 100 µM and the TGI [11] was greater than 100 µM. It also gave a TGI [12] greater than 100 µM, a TGI [13] greater than 100 µM and a TGI [14] greater than 100 µM. For the same molecule, the TGI [15] was greater than 100 µM, the TGI [16] was greater than 100 µM and the TGI [17] was greater than 100 µM. It also gave a TGI [18] greater than 100 µM, a TGI [19] greater than 100 µM and a TGI [54] greater than 100 µM. For the same molecule, the TGI [20] was greater than 100 µM, the TGI [21] was greater than 100 µM and the TGI [22] was greater than 100 µM. For the same molecule, the TGI [23] was greater than 100 µM, the TGI [24] was greater than 100 µM and the TGI [25] was greater than 100 µM. It also gave a TGI [26] greater than 100 µM, a TGI [27] greater than 100 µM and a TGI [55] greater than 100 µM. For the same molecule, the TGI [28] was greater than 100 µM, the TGI [29] was greater than 100 µM and the TGI [30] was greater than 100 µM. The TGI [31] was greater than 100 µM, the TGI [56] was greater than 100 µM and the TGI [32] was greater than 100 µM. The TGI [33] was greater than 100 µM, the TGI [34] was greater than 100 µM and the TGI [35] was greater than 100 µM. The TGI [57] was greater than 100 µM, the TGI [58] was greater than 100 µM and the TGI [36] was greater than 100 µM. It also gave a TGI [38] greater than 100 µM, a TGI [39] greater than 100 µM and a TGI [41] greater than 100 µM. The TGI [42] was greater than 100 µM, the TGI [43] was greater than 100 µM and the TGI [44] was greater than 100 µM. It also gave a TGI [45] greater than 100 µM, a TGI [46] greater than 100 µM and a TGI [47] greater than 100 µM. It also gave a TGI [48] greater than 100 µM, a TGI [49] greater than 100 µM and a TGI [50] greater than 100 µM. The TGI [51] was greater than 100 µM and the TGI [52] was greater than 100 µM.

In the case of `Cc1nc(N)c(-c2ccccc2)s1`, the TGI [1] is reported as greater than 96.1 µM, the TGI [2] is reported as greater than 76.4 µM and the TGI [3] is reported as 92.4 µM. The TGI [4] was greater than 100 µM, the TGI [5] was greater than 100 µM and the TGI [6] was greater than 100 µM. For the same molecule, the TGI [7] was greater than 100 µM, the TGI [8] was greater than 100 µM and the TGI [9] was greater than 100 µM. It also gave a TGI [10] greater than 100 µM, a TGI [11] greater than 100 µM and a TGI [12] greater than 100 µM. It also gave a TGI [13] greater than 45.6 µM, a TGI [14] greater than 100 µM and a TGI [15] greater than 100 µM. The TGI [16] was greater than 100 µM, the TGI [17] was greater than 66.8 µM and the TGI [18] was greater than 100 µM. For the same molecule, the TGI [19] was greater than 100 µM, the TGI [54] was greater than 100 µM and the TGI [20] was greater than 100 µM. The TGI [21] was greater than 100 µM, the TGI [22] was greater than 100 µM and the TGI [23] was greater than 100 µM. It also gave a TGI [24] greater than 73.9 µM, a TGI [25] greater than 100 µM and a TGI [26] greater than 100 µM. It also gave a TGI [27] greater than 68.9 µM, a TGI [55] greater than 100 µM and a TGI [28] greater than 100 µM. It also gave a TGI [29] greater than 100 µM, a TGI [30] greater than 72.1 µM and a TGI [31] greater than 66.7 µM. The TGI [56] was greater than 100 µM, the TGI [32] was greater than 100 µM and the TGI [33] was greater than 100 µM. It also gave a TGI [34] greater than 100 µM, a TGI [35] greater than 100 µM and a TGI [57] greater than 100 µM. The TGI [58] was greater than 62.1 µM, the TGI [36] was greater than 100 µM and the TGI [37] was greater than 100 µM. For the same molecule, the TGI [38] was greater than 100 µM, the TGI [39] was greater than 100 µM and the TGI [40] was greater than 72.9 µM. It also gave a TGI [41] greater than 94.4 µM, a TGI [42] greater than 100 µM and a TGI [43] greater than 100 µM. It also gave a TGI [44] greater than 100 µM, a TGI [59] greater than 100 µM and a TGI [45] greater than 100 µM. The TGI [46] was greater than 100 µM, the TGI [47] was greater than 100 µM and the TGI [48] was greater than 100 µM. It also gave a TGI [49] greater than 100 µM, a TGI [50] greater than 100 µM and a TGI [51] greater than 100 µM. It also gave a TGI [52] greater than 100 µM.
